Laboratory results reported in ChEMBL document CHEMBL1131100, “2-Iminopyrrolidines as potent and selective inhibitors of human inducible nitric oxide synthase” (J Med Chem, 1998).

What was measured:
Nitric oxide synthase 3 = target: T1, Nitric oxide synthase 3 (Homo sapiens, UniProt P29474); experiment: Inhibition of cloned (from RNA) human endothelial constitutive Endothelial nitric oxide synthase (heNOS)
T1 sequence (P29474 whole entry): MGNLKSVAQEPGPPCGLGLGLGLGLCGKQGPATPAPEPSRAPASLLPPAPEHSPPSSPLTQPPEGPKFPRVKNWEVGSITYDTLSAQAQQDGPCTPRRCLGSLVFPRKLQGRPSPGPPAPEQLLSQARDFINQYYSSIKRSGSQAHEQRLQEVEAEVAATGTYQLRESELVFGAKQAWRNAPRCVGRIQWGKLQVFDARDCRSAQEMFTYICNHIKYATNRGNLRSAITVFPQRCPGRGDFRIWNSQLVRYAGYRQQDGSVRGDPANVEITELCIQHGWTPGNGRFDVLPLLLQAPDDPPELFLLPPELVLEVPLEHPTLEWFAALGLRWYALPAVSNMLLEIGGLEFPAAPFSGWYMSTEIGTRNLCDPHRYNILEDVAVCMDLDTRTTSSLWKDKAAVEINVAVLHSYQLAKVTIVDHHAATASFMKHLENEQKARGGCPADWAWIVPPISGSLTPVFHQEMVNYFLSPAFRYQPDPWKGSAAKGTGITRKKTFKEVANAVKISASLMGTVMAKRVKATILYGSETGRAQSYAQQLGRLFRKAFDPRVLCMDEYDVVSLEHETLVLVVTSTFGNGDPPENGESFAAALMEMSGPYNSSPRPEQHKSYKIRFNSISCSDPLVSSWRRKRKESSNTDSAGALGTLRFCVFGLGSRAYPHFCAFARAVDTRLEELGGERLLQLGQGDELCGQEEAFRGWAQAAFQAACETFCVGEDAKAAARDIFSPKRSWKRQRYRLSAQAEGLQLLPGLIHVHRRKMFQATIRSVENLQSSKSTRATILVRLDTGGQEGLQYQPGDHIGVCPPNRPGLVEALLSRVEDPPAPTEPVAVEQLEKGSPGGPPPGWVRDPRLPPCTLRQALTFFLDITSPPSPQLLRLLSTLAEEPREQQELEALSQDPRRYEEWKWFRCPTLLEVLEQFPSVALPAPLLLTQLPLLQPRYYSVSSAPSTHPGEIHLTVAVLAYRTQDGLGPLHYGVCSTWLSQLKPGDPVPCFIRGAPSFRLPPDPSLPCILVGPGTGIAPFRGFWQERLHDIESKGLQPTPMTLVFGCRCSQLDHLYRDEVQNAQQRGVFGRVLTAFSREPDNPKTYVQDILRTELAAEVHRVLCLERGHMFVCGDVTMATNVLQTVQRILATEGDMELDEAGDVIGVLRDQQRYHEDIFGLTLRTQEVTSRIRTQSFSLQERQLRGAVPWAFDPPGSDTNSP

[1] = target: T2, Nitric oxide synthase, inducible (Homo sapiens, UniProt P35228); experiment: Inhibition of cloned (from RNA) human inducible nitric oxide synthase (hiNOS)
T2 sequence (P35228 whole entry): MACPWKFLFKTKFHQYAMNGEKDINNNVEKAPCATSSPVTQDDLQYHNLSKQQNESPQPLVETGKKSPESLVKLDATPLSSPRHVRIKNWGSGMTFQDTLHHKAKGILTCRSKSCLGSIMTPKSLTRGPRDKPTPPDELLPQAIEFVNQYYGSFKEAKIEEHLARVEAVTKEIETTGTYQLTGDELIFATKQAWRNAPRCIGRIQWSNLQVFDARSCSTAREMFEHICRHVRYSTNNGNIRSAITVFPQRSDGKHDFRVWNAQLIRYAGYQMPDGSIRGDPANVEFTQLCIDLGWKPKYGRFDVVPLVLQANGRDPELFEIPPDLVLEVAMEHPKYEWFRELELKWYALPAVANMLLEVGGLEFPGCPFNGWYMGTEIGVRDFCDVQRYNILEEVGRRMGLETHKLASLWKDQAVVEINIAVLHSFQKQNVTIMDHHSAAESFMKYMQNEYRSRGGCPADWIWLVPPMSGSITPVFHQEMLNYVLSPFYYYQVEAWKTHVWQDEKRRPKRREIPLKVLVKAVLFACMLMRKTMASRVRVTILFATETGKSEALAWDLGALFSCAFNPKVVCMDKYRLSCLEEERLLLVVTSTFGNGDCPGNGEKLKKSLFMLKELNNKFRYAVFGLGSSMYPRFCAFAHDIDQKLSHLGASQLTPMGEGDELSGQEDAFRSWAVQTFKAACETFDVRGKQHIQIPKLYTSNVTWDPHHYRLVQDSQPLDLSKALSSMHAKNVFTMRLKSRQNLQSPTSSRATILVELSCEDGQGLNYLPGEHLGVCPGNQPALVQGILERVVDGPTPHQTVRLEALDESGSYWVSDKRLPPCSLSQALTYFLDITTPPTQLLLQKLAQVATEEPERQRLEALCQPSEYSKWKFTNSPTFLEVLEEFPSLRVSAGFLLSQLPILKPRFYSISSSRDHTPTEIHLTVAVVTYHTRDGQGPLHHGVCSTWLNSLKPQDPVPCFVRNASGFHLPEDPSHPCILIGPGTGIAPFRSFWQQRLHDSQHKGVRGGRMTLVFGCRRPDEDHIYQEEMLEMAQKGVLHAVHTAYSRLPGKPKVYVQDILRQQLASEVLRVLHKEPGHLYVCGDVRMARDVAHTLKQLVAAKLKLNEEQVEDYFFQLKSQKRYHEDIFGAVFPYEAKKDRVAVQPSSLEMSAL

Nitric oxide synthase 1 [2] = target: T3, Nitric oxide synthase 1 (Homo sapiens, UniProt P29475); experiment: Inhibition of cloned (from RNA) human Neuronal nitric oxide synthase
T3 sequence (P29475 whole entry): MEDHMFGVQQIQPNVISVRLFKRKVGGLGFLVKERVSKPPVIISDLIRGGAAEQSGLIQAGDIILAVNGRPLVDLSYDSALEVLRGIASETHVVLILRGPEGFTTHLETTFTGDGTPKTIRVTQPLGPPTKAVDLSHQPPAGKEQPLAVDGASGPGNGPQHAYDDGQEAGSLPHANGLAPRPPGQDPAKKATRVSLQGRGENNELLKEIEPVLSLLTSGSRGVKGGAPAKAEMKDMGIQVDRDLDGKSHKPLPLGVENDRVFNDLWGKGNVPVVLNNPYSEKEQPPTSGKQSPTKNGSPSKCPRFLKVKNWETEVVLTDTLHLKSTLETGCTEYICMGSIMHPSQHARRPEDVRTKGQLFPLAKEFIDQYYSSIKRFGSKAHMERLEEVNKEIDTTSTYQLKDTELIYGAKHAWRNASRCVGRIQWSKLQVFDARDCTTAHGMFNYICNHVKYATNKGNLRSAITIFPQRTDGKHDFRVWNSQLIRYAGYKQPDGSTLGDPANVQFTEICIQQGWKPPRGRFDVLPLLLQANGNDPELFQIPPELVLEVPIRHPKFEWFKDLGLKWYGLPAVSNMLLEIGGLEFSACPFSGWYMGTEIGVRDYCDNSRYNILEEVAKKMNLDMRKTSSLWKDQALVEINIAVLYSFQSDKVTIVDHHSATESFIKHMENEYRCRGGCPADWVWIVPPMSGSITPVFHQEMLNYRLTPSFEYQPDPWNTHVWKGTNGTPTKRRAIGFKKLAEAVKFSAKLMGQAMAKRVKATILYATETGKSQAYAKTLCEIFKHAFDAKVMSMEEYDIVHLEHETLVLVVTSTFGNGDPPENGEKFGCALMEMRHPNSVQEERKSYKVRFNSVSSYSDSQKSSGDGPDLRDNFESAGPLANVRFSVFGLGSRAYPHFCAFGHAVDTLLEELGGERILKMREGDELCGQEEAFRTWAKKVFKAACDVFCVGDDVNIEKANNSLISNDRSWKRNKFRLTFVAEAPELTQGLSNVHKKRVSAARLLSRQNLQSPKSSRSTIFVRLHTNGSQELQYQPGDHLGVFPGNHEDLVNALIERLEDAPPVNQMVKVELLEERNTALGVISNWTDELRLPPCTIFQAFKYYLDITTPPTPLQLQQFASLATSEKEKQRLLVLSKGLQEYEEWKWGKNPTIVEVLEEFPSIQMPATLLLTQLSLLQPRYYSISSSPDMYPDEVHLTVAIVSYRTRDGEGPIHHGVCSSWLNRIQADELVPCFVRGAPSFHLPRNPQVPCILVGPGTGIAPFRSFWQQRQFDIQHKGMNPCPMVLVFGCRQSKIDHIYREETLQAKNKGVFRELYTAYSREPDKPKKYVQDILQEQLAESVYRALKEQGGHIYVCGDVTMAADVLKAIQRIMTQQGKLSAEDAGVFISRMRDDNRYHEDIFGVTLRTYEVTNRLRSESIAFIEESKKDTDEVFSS

Nitric oxide synthase 1 [3] = target: T3, Nitric oxide synthase 1; experiment: Inhibition of cloned (from RNA) human Neuronal nitric oxide synthase at 100 uM
[4] = target: T4, Nitric oxide synthase 3 (Homo sapiens) (UniProt P29474); experiment: Inhibition of cloned (from RNA) human endothelial constitutive Endothelial nitric oxide synthase (heNOS)at 100 uM
T4 sequence (whole entry): T1 sequence (P29474 whole entry)

[5] = target: T2, Nitric oxide synthase, inducible; experiment: Inhibition of cloned (from RNA) human inducible nitric oxide synthase (hiNOS) at 100 uM
[6] = target: T2, Nitric oxide synthase, inducible; experiment: Inhibition of cloned (from RNA) human inducible nitric oxide synthase (hiNOS)at 100 uM
[7] = target: T4, Nitric oxide synthase 3 (Homo sapiens); experiment: Inhibition of cloned (from RNA) human endothelial constitutive Endothelial nitric oxide synthase (heNOS) at 100 uM

IC50 (Nitric oxide synthase 3) [µM]	IC50 [1] [µM]	IC50 (Nitric oxide synthase 1 [2]) [µM]	inhibition (Nitric oxide synthase 1 [3]) [%]	inhibition [4] [%]	inhibition [5] [%]	inhibition [6] [%]	inhibition [7] [%]	Structure (SMILES)
226	0.25	3.2						CCCCCC1N=C(N)CC1C (stereo in doubt; 20)
9.1	11.3	3						CC1CCN=C1N (stereo unspecified)
336	10	9.05						CCCCCC1N=C(N)CC1C(F)(F)F (stereo in doubt; 13)
243	0.36	5.37						CCCCCC1N=C(N)CC1C (stereo in doubt; 10)
			17	3	12			CC1(C)CC(N)=NC1Cc1ccccc1 (stereo unspecified)
1680	7.5	45.7						CCCCCC1N=C(N)CC1C(F)(F)F (stereo in doubt; 23)
639	14	11.2						CC1CC(N)=NC1Cc1ccccc1 (stereo in doubt; 16)
23.6	0.66	0.85						CCCCC1N=C(N)CC1C (stereo unspecified)
578	4.5	20.6						CCCCCC1N=C(N)CC1C (stereo in doubt; 21)
3.5	0.3	0.39						CCCC1N=C(N)CC1C (stereo unspecified)
212	0.23	2.53						CCCCCC1N=C(N)CC1C(F)(F)F (stereo in doubt; 22)
29.8	3.4	5.46						CCC1CN=C(N)C1 (stereo unspecified)
2920	74	38.3						NC1=NC(Cc2ccccc2)C(C(F)(F)F)C1 (stereo in doubt; 18)
47.5	0.91	1.31						CCCCCC1N=C(N)CC1C (stereo in doubt; 9)
14.2	1.4	4.7						CC1CN=C(N)C1 (stereo unspecified)
392	0.81	5.44						CCCCCC1N=C(N)CC1C(F)(F)F (stereo in doubt; 14)
			46			64	17	CCCCCC1N=C(N)CC1(C)C (stereo unspecified)
458	3	8.29						CC1CC(N)=NC1Cc1ccccc1 (stereo in doubt; 11)
24.9	10.2	9.8						CC1CCC(N)=N1 (stereo unspecified)
			47		26		16	NC1=NC(Cc2ccccc2)CC1 (stereo unspecified)
1.6	0.17	0.17						CCC1N=C(N)CC1C (stereo unspecified)
1010	22	12.1						NC1=NC(Cc2ccccc2)C(C(F)(F)F)C1 (stereo in doubt; 17)
